Measured values reported in US11857596B2, “Animal feed additive and animal feed” (priority 2018, dated 2024).
≈ marks a conversion by molar mass, not a printed value. Where two headings read alike, the source gives them in different places.

Experiments:
[1] = system: Caco-2 cells (human intestinal epithelial cells); experiment: Membrane strengthening experiment (TER recovery of barrier function after TNF-α); assay type: cell-based; details: for function of strengthening the barrier function (membrane-strengthening ability): result in words, FIG. 1A-1H
[2] = system: Lactobacillus acidophilus AJ13778; experiment: Minimum inhibitory concentration, spot-on-lawn method; assay type: cell-based; details: indicator strain Lactobacillus acidophilus AJ13778, MRS, 37° C.; for MIC: read-out: Minimum inhibitory concentration
[3] = system: Bacteroides fragilis JCM11019; experiment: as above; assay type: cell-based; details: indicator strain Bacteroides fragilis JCM11019, GAM, 37° C.; for MIC: read-out: Minimum inhibitory concentration
[4] = system: Bifidobacterium thermophilum AJ110569; experiment: as above; assay type: cell-based; details: indicator strain Bifidobacterium thermophilum AJ110569, GAM, 37° C.; for MIC: read-out: Minimum inhibitory concentration
Escherichia coli MG1665 = experiment: as above; assay type: cell-based; details: indicator strain Escherichia coli MG1665, LB, 37° C.; for MIC: read-out: Minimum inhibitory concentration
[5] = system: Lactobacillus salivarius AJ110152; experiment: as above; assay type: cell-based; details: indicator strain Lactobacillus salivarius AJ110152, MRS, 37° C.; for MIC: Ligilactobacillus salivarius, read-out: Minimum inhibitory concentration
[6] = system: Clostridium perfringens AJ3350; experiment: microbe, parasite or virus in culture; assay type: cell-based; details: for MIC: Clostridium perfringens, AJ3350, read-out: Minimum inhibitory concentration
[7] = system: Salmonella enterica AJ2785; experiment: microbe, parasite or virus in culture; assay type: cell-based; details: for MIC: Salmonella enterica, AJ2785, read-out: Minimum inhibitory concentration
[8] = system: Enterococcus faecalis AJ110149; experiment: Minimum inhibitory concentration, spot-on-lawn method; assay type: cell-based; details: indicator strain Enterococcus faecalis AJ110149, MRS, 30° C., ND = no effect detected
[9] = Chicken growth test (body weight gain and feed conversion ratio); assay type: in vivo, broiler chickens; details: 0-3 weeks
[10] = material conc. 10 uM, comparison value with Ctr (TNFα alone), 24 h, 1.1 or more = membrane-strengthening ability
[11] = Table 3, addition 10 ppm in feed, negative control = 100
[12] = Table 4, addition 10 ppm in feed
[13] = Table 6, addition 10 ppm, NC = 100%, listed as PC1 (W/Avilamycin)
[14] = Table 6, addition 10 ppm, NC = 100%, listed as PC2 (W/Avilamycin)

CC1=C(/C=C/C(C)=C/C=C/C(C)=C/C=C/C=C(C)/C=C/C=C(C)/C=C/C2=C(C)C(=O)[C@@H](O)CC2(C)C)C(C)(C)C[C@H](O)C1=O [Astaxanthin, astaxanthin]
activity at 10 µg/mL ([1]; Homo sapiens, Caco-2, material conc. 10 mg/L, TER barrier function recovery, 24 h, read-out: Recovery ratio (%)): 132%
Recovery ratio/ctr ([1]; material conc. 10 mg/L, comparison value with Ctr (TNFα alone), 24 h): 1.14
function of strengthening the barrier function (membrane-strengthening ability) [1]: observed to have the function of strengthening the barrier function

CC(C)[C@H](N)C(=O)O [Valine, valine]
Recovery ratio/ctr ([1]; 24 h, 200 µM): 1.13
activity at 200 µM ([1]; Homo sapiens, Caco-2, material conc. 0.2 mM, TER barrier function recovery, 24 h, read-out: Recovery ratio (%)): 130%

CN(C)[C@@H]1C(O)=C(C(N)=O)C(=O)[C@@]2(O)C(O)=C3C(=O)c4c(O)ccc(Cl)c4[C@@](C)(O)[C@H]3C[C@@H]12 [Chlortetracycline]
MIC [2]: 4000 µg/mL (≈ 8.35 mM)
MIC [3]: 4000 µg/mL (≈ 8.35 mM)
MIC [4]: 16000 µg/mL (≈ 33.4 mM)
MIC (Escherichia coli MG1665): 50000 µg/mL (≈ 104 mM)
MIC [5]: 3000 µg/mL (≈ 6.26 mM)
MIC [6]: 62 µg/mL (≈ 0.129 mM)
MIC [7]: 50000 µg/mL (≈ 104 mM)

O=C(O)C(O)Cc1ccccc1 (centres unmarked) [Phenyl-lactate, phenyl lactatic acid]
Recovery ratio (%) ([1]; material conc. 0.2 mM, TER barrier function recovery, 24 h): 129%
Recovery ratio/ctr ([1]; material conc. 0.2 mM, comparison value with Ctr (TNFα alone), 24 h): 1.12

CC[C@H]1OC(=O)C[C@@H](O)[C@H](C)[C@@H](O[C@@H]2O[C@H](C)[C@@H](O[C@H]3C[C@@](C)(O)[C@@H](O)[C@H](C)O3)[C@H](N(C)C)[C@H]2O)[C@@H](CC=O)C[C@@H](C)C(=O)/C=C/C(C)=C/[C@@H]1CO[C@@H]1O[C@H](C)[C@@H](O)[C@@H](OC)[C@H]1OC [Tylosin]
MIC [2]: 1000 µg/mL (≈ 1.09 mM)
activity at 10 µM ([1]; Homo sapiens, Caco-2, material conc. 10 uM, TER barrier function recovery, 24 h, read-out: Recovery ratio (%)): 135%
Recovery ratio/ctr [1, 10]: 1.17
MIC ([8]; read-out: Minimum inhibitory concentration): 4000 µg/mL (≈ 4.37 mM)
MIC [3]: 4000 µg/mL (≈ 4.37 mM)
MIC [4]: 10 µg/mL (≈ 0.0109 mM)
MIC (Escherichia coli MG1665): > 100000 µg/mL
MIC [5]: 1000 µg/mL (≈ 1.09 mM)
MIC [6]: 4000 µg/mL (≈ 4.37 mM)
MIC [7]: > 100000 µg/mL

CCCC(=O)O [Butylate, butyric acid]
activity at 2000 µM ([1]; Homo sapiens, Caco-2, material conc. 2.0 mM, TER barrier function recovery, 24 h, read-out: Recovery ratio (%)): 131%
Recovery ratio/ctr ([1]; material conc. 2.0 mM, comparison value with Ctr (TNFα alone), 24 h): 1.13

COc1cc(/C=C/C(=O)CC(=O)/C=C/c2ccc(O)c(OC)c2)ccc1O [Curcumin, curcumin]
activity at 200 µM ([1]; Homo sapiens, Caco-2, material conc. 200 uM, TER barrier function recovery, 24 h, read-out: Recovery ratio (%)): 128%
Recovery ratio/ctr ([1]; material conc. 200 uM, comparison value with Ctr (TNFα alone), 24 h): 1.14

COC[C@H]1O[C@@H](OC2OC[C@@H]3O[C@]4(O[C@H]3[C@H]2OC(=O)C(C)C)O[C@H](C)[C@@](O)(C(C)=O)[C@@H]2OCO[C@H]24)[C@@H](OC)[C@@H](O)[C@@H]1O[C@@H]1O[C@H](C)[C@H](OC)[C@H](O[C@H]2C[C@@]3(C)OC4(C[C@@H](O)[C@H](O[C@H]5C[C@@H](O)[C@H](OC(=O)c6c(C)c(Cl)c(O)c(Cl)c6OC)[C@@H](C)O5)[C@@H](C)O4)O[C@@H]3[C@@H](C)O2)[C@H]1O (some centres unmarked) [Avilamycin, avilamycin]
Minimum inhibitory concentration [2]: 16000 µg/mL (≈ 11.4 mM)
Recovery ratio (%) ([1]; material conc. 10 uM, TER barrier function recovery, 24 h): 127%
Recovery ratio/ctr [1, 10]: 1.10
function of strengthening the barrier function (membrane-strengthening ability) [1]: had a function of strengthening the barrier function even at a low concentration
Minimum inhibitory concentration [8]: 2000 µg/mL (≈ 1.42 mM)
Minimum inhibitory concentration [3]: 8000 µg/mL (≈ 5.7 mM)
Minimum inhibitory concentration [4]: 16000 µg/mL (≈ 11.4 mM)
Minimum inhibitory concentration (Escherichia coli MG1665): >100000 µg/mL
Minimum inhibitory concentration [5]: 8000 µg/mL (≈ 5.7 mM)
Minimum inhibitory concentration ([6]; indicator strain Clostridium perfringens AJ3350, GAM, 37° C.): 1000 µg/mL (≈ 0.712 mM)
BWG [9, 11]: 110%
FCR [9, 11]: 96%
BWG [9, 12]: 107%
FCR [9, 12]: 95%
BWG [9, 13]: 104%
FCR [9, 13]: 97%
BWG [9, 14]: 107%
FCR [9, 14]: 94%
Minimum inhibitory concentration [7]: >100000 µg/mL
